The target of one series is T1, STAT5B NTD (Homo sapiens, UniProt P51692).
T1 construct: His-SUMO (N, cleaved yes); made in house; host or cells: E. coli BL21 RILP
T1 sequence (P51692 1-123): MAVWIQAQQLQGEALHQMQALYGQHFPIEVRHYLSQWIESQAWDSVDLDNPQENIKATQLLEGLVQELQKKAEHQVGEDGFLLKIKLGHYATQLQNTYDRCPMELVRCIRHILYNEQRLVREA
The series can be described thus: Microscale thermophoresis (MST), without irradiation. As to conditions: for ΔFnorm: Fnorm - Unbound value; for ΔFnorm / Fnorm: Php065 concentration [log; for Fnorm: MST raw data. The class given is binding. The protocol: For the microscale thermophoresis (MST) studies, we prepared 16 two-fold serial dilutions of compounds starting from 500 μM. Titration series were prepared that contained 10 μL of compounds’ solutions of varying concentrations and 10 μL RED-NHS 2nd Generation labeled STAT5B NTD with a concentration of 168 nM for compound PhP097, and a concentration of 84 nM for compound PhP065. Final buffer composition included 1X PBS containing 0.5% DMSO. All measurements were taken in Premium Coated Capillaries on a Monolith NT.115 instrument (NanoTemper Technologies, Munich, Germany) using 80% infrared laser power for compound PhP097, 60% infrared laser power for compound PhP065, and an LED excitation source with λ = 650 nm at a temperature of 25 °C. Results were expressed as the mean of two separate experiments, with three technical replicates each. GraphPad Prism 9.5.1 software was used to fit the data and to determine the KD values.

Another series relates to MOLM-13 cells. The series can be described thus: CellTiter-Blue cell viability assay, MOLM-13. Format: cell-based. As to conditions: Homo sapiens, MOLM-13, 72 h. Here is the method: MV4-11 and MOLM-13 cell lines were purchased from DSMZ (Braunschweig, Germany), and grown at 37 °C and 5% CO2 in RPMI 1640 medium (Gibco^TM, Thermo Fisher Scientific). Media were supplemented with 10% fetal calf serum (FCS), 10 U/mL penicillin, 10 µg/mL streptomycin and 2 mM L-glutamine (all Gibco^TM, Thermo Fisher Scientific).
To determine the IC50 of the selected compounds on the cell lines, CellTiter-Blue® cell viability assay (Promega) was performed. For this, cells were seeded in 96-well flat bottom plates at a cell density of 10,000 cells/well. Cells were treated in triplicates with the compound of interest at various concentrations or with 10 μM Bortezomib (S1013; Selleck Chemicals, Houston, TX, USA) as a positive control. Cell viability of treated cell lines was measured using CellTiter-Blue® after 72 h incubation. Plates were measured using a GloMax® plate reader (Promega) and IC50 values were determined by non-linear regression using the GraphPad Prism 9.1.1 (GraphPad Software, Inc.) and the data are reported as mean values ± SEM.

For the next series, the system named is SW1990 cells. The series can be described thus: MTT cell viability assay, SW1990. The class given is cell-based, human. Particulars: for cell viability: replicates, in % (unit assumed). From the text: Pancreatic cancer cell lines PANC-1 (cat. no. CRL-1469), SW1990 (cat. no. CRL-2172) were obtained from ATCC (American Type Culture Collection). Genetically modified isogeneic colon cancer cell lines SW48-PAR and SW48-G12D were obtained from Horizon Discovery Ltd. PANC-1 (human pancreatic cancer, KRas^G12D), SW1990 (human pancreatic cancer, KRas^G12D), SW48-PAR (human colon cancer; parental cell line KRas^wt), and SW48-G12D (human colon cancer; heterozygous knockin of the KRas^G12D activating mutation) cancer cell lines were cultured in Roswell Park Memorial Institute Medium (RPMI; Biosera, Nuaille, France), supplemented with 10% heat-inactivated Fetal Bovine Serum (FBS; Biosera), and with 1% Penicillin/Streptomycin (Biosera). Cells were cultured in sterile T75 flasks with ventilation cap (Sarstedt, Nümbrecht, Germany) at 37 °C in a humidified atmosphere with 5% CO2 in ESCO CelCulture Incubator (ESCO, Friedberg, Germany). Manipulations with the cells were performed in biosafety cabinet (laminar) ESCO Sentinel Gold class II model AC2-4E8 (ESCO).
After standard harvesting of the cells by trypsin-EDTA (Biosera), 7 × 10^3 cells per well depending on the cell line, were seeded in serum-containing growth medium to 96-well plates and incubated. After 24 h, cells were treated with various concentrations of fragments (32 nM–100 μM), dissolved in serum-containing medium, and incubated under standard conditions. Control wells were treated with medium. Final concentration of serum was 2.5%, final concentration of DMSO was 0.2%. Treatment was for 72 h continuously.
Afterwards, MTT assay was performed in order to determine cell viability, by adding 20 μL of MTT solution (5 mg/mL in PBS) to each well and after 2 h of incubation at 37 °C, the supernatant was removed. The formazan crystals were dissolved in 100 μL of a 1:1 solution of DMSO (Sigma-Aldrich):EtOH (Molar Chemicals) and the absorbance was measured after 15 min at λ = 570 nm by using a microplate reader (BioTek 800TS, Agilent, Santa Clara, CA, USA). The IC50 values of the fragments were calculated using GraphPad Prism 6 (GraphPad Software, San Diego, CA, USA). The experiments were done in triplicate, and each experiment was repeated two times.
(In general: Formazan colour is commonly taken as a measure of viable cells.)

Setting [1] is: µM] -0.0102833, runs/replicates.

The values that follow come from publication PMC11292009, “Mapping protein binding sites by photoreactive fragment pharmacophores” (Communications Chemistry, 2024).

“And” between values parts separate entries of the source, which are not always exact repeats. Equal values may be shown once.

As a reminder, the Kd is the constant that tells how readily two partners part at equilibrium. As a reminder, the IC50 is the concentration needed to halve the response being measured. On to `Cc1[nH]c2ccccc2c1SCCNC(=O)CCC1(C)N=N1` [PhP065, c1cccc(c12)c(c(C)[nH]2)SCCNC(=O)CCC3(C)N=N3], for which the ΔFnorm was 0.9086 ‰ and 1.12 ‰ and 1.315 ‰ and 0.6539 ‰ and 3.352 ‰ on STAT5B NTD (µM] 0.290724, runs/replicates); 1.904 ‰ and 1.964 ‰ and 2.239 ‰ and 1.873 ‰ and 1.543 ‰ on STAT5B NTD (µM] 0.591766, runs/replicates); 2.551 ‰ and 2.874 ‰ and 3.878 ‰ and 2.514 ‰ and 2.452 ‰ at STAT5B NTD (µM] 0.89279, runs/replicates); 2.441 ‰ and 3.584 ‰ and 3.84 ‰ and 4.085 ‰ and 3.441 ‰ at STAT5B NTD (µM] 1.19382, runs/replicates); 2.771 ‰ and 2.9356 ‰ and 3.692 ‰ and 3.134 ‰ and 1.982 ‰ at STAT5B NTD (µM] 1.49485, runs/replicates); 5.943 ‰ and 5.783 ‰ and 5.743 ‰ and 2.367 ‰ and 1.87 ‰ on STAT5B NTD (µM] 1.79588, runs/replicates). Besides, the ΔFnorm at STAT5B NTD (µM] 2.09691, runs/replicates) was 3.3934 ‰ and 3.578 ‰ and 3.242 ‰ and 3.625 ‰ and 1.481 ‰; at STAT5B NTD (setting [1]), -0.1141 ‰ and 1.411 ‰ and 0.9224 ‰ and 2.015 ‰ and 2.612 ‰; on STAT5B NTD (µM] -0.612432, runs/replicates), 0.5449 ‰ and 0.5795 ‰ and -0.1361 ‰ and -1.636 ‰ and -0.3141 ‰; on STAT5B NTD (µM] -1.21467, runs/replicates), -0.5121 ‰ and -0.1857 ‰ and -0.4698 ‰ and -1.614 ‰ and -1.146 ‰. The Fnorm at STAT5B NTD (µM] 0.290724, runs/replicates) is 864.059 ‰ and 864.76 ‰ and 864.855 ‰ and 874.324 ‰ and 877.312 ‰; on STAT5B NTD (µM] 0.591766, runs/replicates) it was 865.054 ‰ and 865.604 ‰ and 865.779 ‰ and 875.543 ‰ and 875.503 ‰; on STAT5B NTD (µM] 0.89279, runs/replicates), 865.701 ‰ and 866.514 ‰ and 867.418 ‰ and 876.184 ‰ and 876.412 ‰; on STAT5B NTD (µM] 1.19382, runs/replicates) it was 865.591 ‰ and 867.224 ‰ and 867.38 ‰ and 877.755 ‰ and 877.401 ‰; at STAT5B NTD (µM] 1.49485, runs/replicates), 865.921 ‰ and 866.576 ‰ and 867.232 ‰ and 876.804 ‰ and 875.942 ‰; on STAT5B NTD (µM] 1.79588, runs/replicates), 869.093 ‰ and 869.423 ‰ and 869.283 ‰ and 876.037 ‰ and 875.83 ‰. Besides, the Fnorm on STAT5B NTD (µM] 2.09691, runs/replicates) was 866.543 ‰ and 867.218 ‰ and 866.782 ‰ and 877.295 ‰ and 875.441 ‰; on STAT5B NTD (setting [1]), 863.036 ‰ and 865.051 ‰ and 864.462 ‰ and 875.685 ‰ and 876.572 ‰; on STAT5B NTD (µM] -0.612432, runs/replicates), 863.695 ‰ and 864.219 ‰ and 863.404 ‰ and 872.034 ‰ and 873.646 ‰; at STAT5B NTD (µM] -1.21467, runs/replicates), 862.638 ‰ and 863.454 ‰ and 863.07 ‰ and 872.056 ‰ and 872.814 ‰. Besides, the equilibrium dissociation constant (Kd) at STAT5B NTD (MST, without irradiation, 25 °C) was 2.58 µM. Further, the IC50 with MOLM-13 cells amounted to 100 µM.
`Cc1ncc(CO)c(CNC(=O)CCC2(C)N=N2)c1O` [PhP072, Cc1ncc(CO)c(c1O)CNC(=O)CCC2(C)N=N2]: the IC50 in the series on SW1990 cells (Homo sapiens, read-out: IC50, antiproliferative activity, SW1990, MTT, 72 h) is 17.2 µM. For the same molecule, the cell viability in the series on SW1990 cells (SW1990, [PhP072] 3.2e-8 M) is 101.695 and 98.3609 and 102.528 and 107.265 and 99.8137 and 96.5538; with SW1990 cells (SW1990, [PhP072] 1.6e-7 M), 103.195 and 101.49 and 102.515 and 96.4606; in the series on SW1990 cells (SW1990, [PhP072] 8e-7 M) it was 103.528 and 101.528 and 95.5272 and 94.039 and 99.4411 and 93.387; in the series on SW1990 cells (SW1990, [PhP072] 4e-6 M), 101.861 and 97.8608 and 97.1941 and 99.9069 and 97.2989 and 95.6224; in the series on SW1990 cells (SW1990, [PhP072] 2e-5 M), 90.5265 and 81.8586 and 88.0261 and 89.1956 and 90.8722 and 79.3227; in the series on SW1990 cells (SW1990, [PhP072] 0.0001 M), 62.6893 and 57.5219 and 66.8565 and 62.4641 and 63.023 and 60.1356.
